Biological target: T1, human GPR119 (Homo sapiens, UniProt Q8TDV5)
T1 sequence (Q8TDV5 1-308 limits assumed): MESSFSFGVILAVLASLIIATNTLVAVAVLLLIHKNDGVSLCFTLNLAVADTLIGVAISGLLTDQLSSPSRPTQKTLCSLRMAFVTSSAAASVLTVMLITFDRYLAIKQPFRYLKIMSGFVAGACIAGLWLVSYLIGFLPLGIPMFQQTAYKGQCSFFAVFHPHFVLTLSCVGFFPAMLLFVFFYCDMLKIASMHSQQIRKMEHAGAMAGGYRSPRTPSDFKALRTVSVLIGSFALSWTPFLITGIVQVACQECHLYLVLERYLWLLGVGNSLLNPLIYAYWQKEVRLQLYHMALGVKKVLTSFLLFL
Assay: Measurement of GPR119 signaling (cAMP assay; LANCE kit or HTRF) in HEK293 cells stably transfected with human GPR119
Type: cell-based
Conditions: agonist-stimulated cAMP in HEK293 cells expressing human GPR119
Summary of the method: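 LANCE method: cAMP detected with Eu-chelate/biotin-cAMP tracer, 3 h, read at 665 nm, converted via cAMP standards; basal from DMSO, maximum from internal agonist, 4-parameter fit.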

Structure (SMILES) | EC50 [nM]
CS(=O)(=O)c1ccc(COC[C@@H]2C[C@@H]2C2CCN(c3ncc(C4CC4)cn3)CC2)cc1 [Example 18, 5-cyclopropyl-2-{4-[(1R,2R)-2-({[4-(methylsulfonyl)benzyl]oxy}methyl)cyclopropyl]piperidin-1-yl}pyrimidine] | 1
CCc1cnc(N2CCC([C@H]3C[C@H]3COCc3ccc(-c4cncnc4)cc3)CC2)nc1 [Example 120] | 1.9
CS(=O)(=O)c1ccc(COC[C@@H]2C[C@@H]2C2CCN(c3ncc(Cl)cn3)CC2)cc1F [Example 41, 5-chloro-2-{4-[(1R,2R)-2-({[3-fluoro-4-(methylsulfonyl)benzyl]oxy}methyl)cyclopropyl]piperidin-1-yl}pyrimidine] | 0.4
CS(=O)(=O)c1c(F)cc(COC[C@@H]2C[C@@H]2C2CCN(c3ncc(F)cn3)CC2)cc1F [Example 47, 2-{4-[(1R,2R)-2-({[3,5-difluoro-4-(methylsulfonyl)benzyl]oxy}methyl)cyclopropyl]piperidin-1-yl}-5-fluoropyrimidine] | 3.2
CS(=O)(=O)c1ccc(COC[C@@H]2C[C@@H]2C2CCN(c3nc(C4CC4)no3)CC2)cc1 [Example 27, 1-(3-cyclopropyl-1,2,4-oxadiazol-5-yl)-4-[(1R,2R)-2-({[4-(methylsulfonyl)benzyl]oxy}methyl)cyclopropyl]piperidine] | 3.2
CCc1cnc(N2CCC([C@H]3C[C@H]3COCc3ccc(S(=O)(=O)CCO)cn3)CC2)nc1 [Example 88, 2-({6-[({(1R,2R)-2-[1-(5-ethylpyrimidin-2-yl)piperidin-4-yl]cyclopropyl}methoxy)methyl]pyridin-3-yl}sulfonyl)ethanol] | 17
CCc1cnc(N2CCC([C@H]3C[C@H]3COCc3ccc(-c4cnc(N)nc4)cc3F)CC2)nc1 [Example 103, 5-{4-[({(1R,2R)-2-[1-(5-ethylpyrimidin-2-yl)piperidin-4-yl]cyclopropyl}methoxy)methyl]-3-fluorophenyl}pyrimidin-2-amine] | 2.5
CCc1cnc(N2CCC([C@H]3C[C@H]3COCc3ccc(-c4cnc(N)nc4)c(F)c3)CC2)nc1 [Example 118, 5-{4-[({(1R,2R)-2-[1-(5-ethylpyrimidin-2-yl)piperidin-4-yl]cyclopropyl}methoxy)methyl]-2-fluorophenyl}pyrimidin-2-amine] | 5.9
CCc1cnc(N2CCC([C@H]3C[C@H]3COCc3ccc(S(=O)(=O)CC)cc3)CC2)nc1 [Example 57, 5-ethyl-2-{4-[(1R,2R)-2-({[4-(ethylsulfonyl)benzyl]oxy}methyl)cyclopropyl]piperidin-1-yl}pyrimidine] | 0.3
CCS(=O)(=O)c1ccc(COC[C@@H]2C[C@@H]2C2CCN(C(=O)OC(C)(C)C)CC2)cc1F [Example 34, tert-butyl 4-[(1R,2R)-2-({[4-(ethylsulfonyl)-3-fluorobenzyl]oxy}methyl)cyclopropyl]piperidine-1-carboxylate] | 0.1
CS(=O)(=O)c1ccc(COC[C@@H]2C[C@@H]2C2CCN(c3ncc(C=O)cn3)CC2)c(F)c1 [Example 71, 2-{4-[(1R,2R)-2-({[2-fluoro-4-(methylsulfonyl)benzyl]oxy}methyl)cyclopropyl]piperidin-1-yl} pyrimidine-5-carbaldehyde] | 13.6
CCc1cnc(N2CCC([C@H]3C[C@H]3COCc3ccc(S(C)(=O)=O)cn3)CC2)nc1 [Example 3, 5-ethyl-2-{4-[(1R,2R)-2-({[5-(methylsulfonyl)pyridin-2-yl]methoxy}methyl)cyclopropyl]piperidin-1-yl}pyrimidine] | 1.5
CCCc1cnc(N2CCC([C@H]3C[C@H]3COCc3ccc(S(=O)(=O)CCO)cc3F)CC2)nc1 [Example 84] | 1.3
CCc1cnc(N2CCC([C@H]3C[C@H]3COCc3ccc(S(=O)(=O)CCO)cc3F)CC2)nc1 [Example 83] | 21
COC(C)c1cnc(N2CCC([C@H]3C[C@H]3COCc3ccc(S(C)(=O)=O)cc3F)CC2)nc1 (single isomer, unassigned) [Example 125] | 0.36
CS(=O)(=O)c1ccc(COC[C@@H]2C[C@@H]2C2CCN(c3ncc(F)cn3)CC2)cc1 [Example 16, 5-fluoro-2-{4-[(1R,2R)-2-({[4-(methylsulfonyl)benzyl]oxy}methyl)cyclopropyl]piperidin-1-yl}pyrimidine] | 5.8

Structure (SMILES) | EC50 [nM]
CC(O)CS(=O)(=O)c1ccc(COC[C@@H]2C[C@@H]2C2CCN(c3ncc(Br)cn3)CC2)c(F)c1 (stereo partly drawn) [Example 97, 1-({4-[({(1R,2R)-2-[1-(5-bromopyrimidin-2-yl)piperidin-4-yl]cyclopropyl}methoxy)methyl]-3-fluorophenyl}sulfonyl)propan-2-ol] | 1.6
CS(=O)(=O)c1ccc(COC[C@@H]2C[C@@H]2C2CCN(c3nc(C4CC4)no3)CC2)cc1F [Example 37, 1-(3-cyclopropyl-1,2,4-oxadiazol-5-yl)-4-[(1R,2R)-2-({[3-fluoro-4-(methylsulfonyl)benzyl]oxy}methyl)cyclopropyl]piperidine] | 0.6
CC(C)c1noc(N2CCC([C@H]3C[C@H]3COCc3ccc(-n4cnnn4)cc3F)CC2)n1 [Example 134, 5-(4-((1R,2R)-2-((2-fluoro-4-(1H-tetrazol-1-yl)benzyloxy)methyl)cyclopropyl)piperidin-1-yl)-3-isopropyl-1,2,4-oxadiazole] | 1.7
CCc1cnc(N2CCC([C@H]3C[C@H]3COCc3ccc(-c4ccc(C)nn4)cc3F)CC2)nc1 [Example 100, 3-{4-[({(1R,2R)-2-[1-(5-ethylpyrimidin-2-yl)piperidin-4-yl]cyclopropyl}methoxy)methyl]-3-fluorophenyl}-6-methylpyridazine] | 1
O=S(=O)(CCO)c1ccc(COC[C@@H]2C[C@@H]2C2CCN(c3ncc(-c4ccoc4)cn3)CC2)c(F)c1 [Example 85, 2-[(3-fluoro-4-{[((1R,2R)-2-{1-[5-(3-furyl)pyrimidin-2-yl]piperidin-4-yl}cyclopropyl)methoxy]methyl}phenyl)sulfonyl]ethanol] | 3.8
CCc1cnc(N2CCC([C@H]3C[C@H]3COCc3ccc(-c4nccnc4N)cc3F)CC2)nc1 [Example 107, 2-{4-[({(1R,2R)-2-[1-(5-ethylpyrimidin-2-yl)piperidin-4-yl]cyclopropyl}methoxy)methyl]-3-fluorophenyl}pyrazin-2-amine] | 2
COCc1cnc(N2CCC([C@H]3C[C@H]3COCc3ccc(S(C)(=O)=O)cc3F)CC2)nc1 [Example 77, 2-{4-[(1R,2R)-2-({[2-fluoro-4-(methylsulfonyl)benzyl]oxy}methyl)cyclopropyl]piperidin-1-yl}-5-(methoxymethyl)pyrimidine] | 1.6
CC(C)c1noc(N2CCC([C@H]3C[C@H]3COCc3ccc(CC(=O)N(C)C)c(F)c3)CC2)n1 [Example 140, 2-(2-fluoro-4-((((1R,2R)-2-(1-(3-isopropyl-1,2,4-oxadiazol-5-yl)piperidin-4-yl)cyclopropyl)methoxy)methyl)phenyl)-N,N-dimethylacetamide] | 0.66
CCc1cnc(N2CCC([C@H]3C[C@H]3COCc3ccc(-c4cnc(OC)nc4)cc3F)CC2)nc1 [Example 104, 5-{4-[({(1R,2R)-2-[1-(5-ethylpyrimidin-2-yl)piperidin-4-yl]cyclopropyl}methoxy)methyl]-3-fluorophenyl}-2-methoxypyrimidine] | 8.8
O=S(=O)(CCO)c1ccc(COC[C@@H]2C[C@@H]2C2CCN(c3ncc(Cl)cn3)CC2)c(F)c1 [Example 80] | 2.3
CCc1cnc(N2CCC([C@H]3C[C@H]3COCc3ccc(C[C@H](C)O)cc3)CC2)nc1 [Example 59, (2S)-1-{4-[({(1R,2R)-2-[1-(5-ethylpyrimidin-2-yl)piperidin-4-yl]cyclopropyl}methoxy)methyl]phenyl}propan-2-ol] | 1.6
CS(=O)(=O)c1ccc(COC[C@@H]2C[C@@H]2C2CCN(C(=O)OC3CCC3)CC2)cc1 [Example 12, cyclobutyl 4-[(1R,2R)-2-({[4-(methylsulfonyl)benzyl]oxy}methyl)cyclopropyl]piperidine-1-carboxylate] | 8.2
CCc1cnc(N2CCC([C@H]3C[C@H]3COCc3ccc(-c4cnccn4)cc3F)CC2)nc1 [Example 109, 2-{4-[({(1R,2R)-2-[1-(5-ethylpyrimidin-2-yl)piperidin-4-yl]cyclopropyl}methoxy)methyl]-3-fluorophenyl}pyrazine] | 2.3
CCc1cnc(N2CCC([C@H]3C[C@H]3COCc3ccc(-c4cccnn4)c(F)c3)CC2)nc1 [Example 114, 3-{4-[({(1R,2R)-2-[1-(5-ethylpyrimidin-2-yl)piperidin-4-yl]cyclopropyl}methoxy)methyl]-2-fluorophenyl}pyridazine] | 3
CC(C)(C)OC(=O)N1CCC([C@H]2C[C@H]2COCc2ccc(S(=O)(=O)CCO)cc2F)CC1 [Example 79, tert-butyl 4-{(1R,2R)-2-[({2-fluoro-4-[(2-hydroxyethyl)sulfonyl]benzyl}oxy)methyl]cyclopropyl}piperidine-1-carboxylate] | 7.1
O=S(=O)(CCO)c1ccc(COC[C@@H]2C[C@@H]2C2CCN(c3ncc(Cl)cn3)CC2)nc1 [Example 86, 2-({6-[({(1R,2R)-2-[1-(5-chloropyrimidin-2-yl)piperidin-4-yl]cyclopropyl}methoxy)methyl]pyridin-3-yl}sulfonyl)ethanol] | 22
